Earlier results in patent EP1399019B1, “ADJUVANT COMPOSITIONS AND PESTICIDES” (HUNTSMAN PETROCHEMICAL CORPORATION, priority 2001, dated 2002).
Read-outs that look alike come from different tables or passages of the source.

## CNC(=O)CSP(=S)(OC)OC [Cygon, dimethoate]
Mixed in water of pH 9
  time to lose 50 percent of its pest control power: 48 min
pH of 6
  time to lose 50 percent of its pest control power: 720 min
